Data as given in US20140186329A1, “POLYPHENOL ANALOGS TO TREAT ISCHEMIA” (priority 2011, published 2014).
Where two headings read alike, the source gives them in different places.

Tests used:
[1] = TEAC, ABTS decolorization assay; details: relative to Trolox
Method: TEAC values for the flavonoids were determined as described (Maher, P. et al., Free Radical Research. (2006), supra). Briefly, 250 μl of 2,2′-azinobis(3-ethylbenzothiazoline 6-sulfonate) (ABTS) treated overnight with potassium persulfate and diluted to an OD of ˜0.7 at 734 nm was added to 2.5 μl of a derivative solution in ethanol. The change in absorbance due to the reduction of the ABTS radical cation was measured at 734 nm for 4 min. To calculate the TEAC, the gradient of the plot of the percentage inhibition of absorbance vs. concentration for the derivative in question was divided by the gradient of the plot for Trolox.
(§1) Cell viability was determined after 24 hr by the MTT assay. The ability to maintain GSH (GSH) was determined by treating HT22 cells with different doses of each derivative (1-10 μM) in the presence of 5 mM glutamate. After 24 hr cell extracts were prepared and analyzed for total GSH. Fisetin (10 μM) was used as a positive control. The ability to induce PC12 cell differentiation (PC 12 diff' n) was determined by treating PC12 cells in N2 medium with different doses of each derivative (1-10 μM) for 24 hr. Differentiation was assessed by visual inspection with Fisetin (10 μM) as a positive control. Anti-inflammatory activity (microglia) was assessed in N9 microglial cells treated with bacterial lipopolysaccharide alone or in the presence different doses of each derivative (1-10 μM) for 24 hr. Fisetin was used as a positive control. TEAC values, a measure of direct antioxidant activity, were determined using the ABTS decolorization assay.

[2] = tested on: HT22 cells; assay: In vitro ischemia assay (HT22 cell IAA assay, MTT); assay type: cell-based, mouse; details: for Emax: HT-22, HT22 Cell IAA assay, read-out: Max Protection
Method: Cell viability was determined by a modified version of 3-(4,5-dimethylthiazol-2-yl)-2,5-diphenyl tetrazolium bromide (MTT) assay based on the standard procedure (Maher, et al., Brain Research. (2007), supra). Cells were seeded onto 96-well microtiter plates at a density of 5×10^3 cells per well. For the in vitro ischemia assay, the next day, the medium was replaced with DMEM supplemented with 7.5% DFCS and the cells were treated with 20 μM iodoacetic acid (IAA) alone or in the presence of the different derivatives. After 2 hr the medium in each well was aspirated and replaced with fresh medium without IAA but containing the derivatives. 20 hr later, the medium in each well was aspirated and replaced with fresh medium containing 2.5 μg/ml MTT. After 4 hr of incubation at 37° C., the cells were solubilized with 100 μl of a solution containing 50% dimethylformamide and 20% SDS (pH 4.7). The absorbance at 570 nm was measured on the following day with a microplate reader (Molecular Devices). Results were confirmed by visual inspection of the wells. Controls included compound alone to test for toxicity and compound with no cells to test for interference with the assay chemistry.
For a primary screen, an in vitro ischemia model in combination with the HT22 nerve cell line (Maher, et al., Brain Research. (2007) 1173, 117-125) was chosen. […] To induce ischemia in the HT22 cells we used iodoacetic acid (IAA), a well-known, irreversible inhibitor of the glycolytic enzyme glyceraldehyde 3-phosphate dehydrogenase (G3PDH) (Winkler, et al., Exp. Eye Res. (2003) 76, 715-723). IAA has been used in a number of other studies to induce ischemia in nerve cells (Reshef, et al., Neurosci. Lett. (1997) 238, 37-40; Sperling, et al., Neursci. Lett. (2003) 351, 137-140; Rego, et al., Neurochem. Res. (1999) 24, 351-358; Sigalov, et al., J. Mol. Neurosci. (2000) 15, 147-154; and Reiner, et al., Neurosci. Lett. (1990) 119, 175-178), including several recent screens for neuroprotective molecules (Biraboneye, et al., J. Med. Chem. (2009) 52 (14), 4358-4369; Biraboneye, et al., Chem. Med. Chem. (2010) 5 (1), 79-85). The changes following IAA treatment of neural cells are very similar to those seen in animal models of ischemic stroke (Lipton, et al., Physiol. Rev. (1999) 79, 1431-1568) and include alterations in membrane potential (Reiner, et al., Neurosci. Lett. (1990) 119, 175-178), breakdown of phospholipids (Taylor, et al., J. Pharmacol. Exp. Ther. (1996) 276, 1224-1231), loss of ATP (Winkler, et al., Exp. Eye Res. (2003) 76, 715-723; Sperling, et al., Neursci. Lett. (2003) 351, 137-140) and an increase in reactive oxygen species (ROS) (Taylor, et al., J. Pharmacol. Exp. Ther. (1996), supra; and Sperling, et al., Neursci. Lett. (2003) 351, 137-140).
as §1
For rapid screening of chemical libraries, a mouse HT22 hippocampal cell death assay induced by addition of the compound iodoacetic acid (IAA) was used. IAA is a well-known, irreversible inhibitor of the glycolytic enzyme glyceraldehyde 3-phosphate dehydrogenase (G3PDH). […]

[3] = tested on: HT22 cells; assay: Maintenance of total GSH in the presence of glutamate; assay type: cell-based, mouse; details: derivative 1-10 μM, 5 mM glutamate, 24 hr
Method: Total intracellular glutathione was determined by a chemical assay as described (Maher, P. et al., Free Radical Research. (2006) 40 (10), 1105-1111).
(§2) Three secondary screens allowed assessment of three key activities of Fisetin that are highly relevant to stroke, as well as other neurological disorders: maintenance of glutathione (GSH), the major endogenous cellular antioxidant, inhibition of LPS-induced microglial activation, an indicator of anti-inflammatory activity and PC 12 cell differentiation, a measure of neurotrophic activity. All of these activities are relevant to the nerve cell loss seen in stroke (Gelderblom, et al., Stroke. 2009, 40 (5), 1849-1857; Pandya, et al., Cent. Nerv. Syst. Agents. Med. Chem. (2011) April 27; Lewerenz, et al., J. Neurochem. (2010) 113 (2), 502-504). […] To assess GSH maintenance, total intracellular GSH levels after a 24 hr treatment with the compound both in the absence and presence of glutamate, an inducer of GSH loss and oxidative stress (Tan, et al., Curr. Top. Med. Chem. (2001) 1, 497-506; Maher, et al., Free Radical Research. (2006) 40 (10), 1105-1111) was measured. Inhibition of LPS-induced microglial activation was determined by treating N9 mouse microglial cells with LPS alone and in the presence of the compounds and assaying NO release into the medium 24 hr later (Zheng, et al., Int. Immunopharmacol. (2008) 8, (3), 484-494). PC12 cell differentiation was determined by treating PC12 cells with the compounds and looking at neurite outgrowth after 24 hr. In all cases, Fisetin was used as a positive control (Sagara, et al., J. Neurochem. (2004) 90, 1144-1155).
as §1

[4] = tested on: PC12 cells; assay: PC12 cell differentiation (neurite outgrowth); assay type: cell-based; details: N2 medium, derivative 1-10 μM, 24 hr, visual inspection
Method: PC 12 cells in N2 medium were treated with the derivatives (1-10 μM) or Fisetin (10 μM) as a positive control for 24 hr at which time the cells were scored for the presence of neurites. PC12 cells produce neurites much more rapidly when treated in N2 medium than when treated in regular growth medium. For each treatment, 100 cells in each of three separate fields were counted. Cells were scored positive if one or more neurites>1 cell body diameter in length were observed.
as §2, §1

[5] = HT22 cells, 20 μM IAA for 2 hr, viability after 24 hr by MTT
[6] = Mus musculus, HT-22, HT22 cells, 20 μM IAA for 2 hr, viability after 24 hr by MTT, read-out: EC50 in vitro ischemia
[7] = Mus musculus, HT-22, HT22 cells, 20 μM IAA, read-out: HT22 Cell IAA assay EC50

Row | SMILES | TEAC [1] | EC50 in vitro ischemia (μM) [2, 5] | GSH (ability to maintain GSH) [3] | PC12 diff'n (ability to induce PC12 cell differentiation) [4] | EC50 [2, 6] | EC50 [2, 7] | Emax ([2]; Mus musculus) | fold improvement of neuroprotective activity/potency relative to Fisetin ([2]; in vitro ischemia, HT22/IAA) | EC50 ([2]; HT22 cells, 20 μM IAA, read-out: HT22 Cell IAA assay EC50)
1 | CCOc1ccc(-c2cc(=O)c3cc(C)c(C)cc3o2)cc1OCC [CMS-018, 2-(3,4-diethoxyphenyl)-6,7-dimethyl-4H-chromen-4-one] | 0.15 | no | no | no |  |  |  |  | 
2 | COc1cc(-c2ccc(N(C)C)cc2)nc2ccccc12 [CMS-109, 4-methoxy-2-(4-dimethylaminophenyl)quinoline] | 0.06 |  | no | no | 60 nM |  |  |  | 
3 | COc1cc(-c2oc3c(ccc4ccccc43)c(=O)c2O)ccc1OCc1ccccc1 [CMS-065, 2-(4-(benzyloxy)-3-methoxyphenyl)-3-hydroxy-4H-benzo[h]chromen-4-one] | 0 |  | no | yes | 80 nM | 81 nM |  |  | 
4 | COc1ccc(-c2oc3cc(C)c(C)cc3c(=O)c2O)cc1O [CMS-092, 3-hydroxy-2-(3-hydroxy-4-methoxyphenyl)-6,7-dimethyl-4H-chromen-4-one] | 1.74 |  | no | no | 20 nM |  | 90% |  | 
5 | Cc1cc(O)c(C(=O)/C=C/c2ccc(O)cc2O)cc1C [CMS-087, (E)-3-(2,4-dihydroxyphenyl)-1-(2-hydroxy-4,5-dimethylphenyl)prop-2-en-1-one] | 0.93 |  | no | yes | 50 nM |  |  |  | 
6 | CCOc1ccc(-c2cc(OC)c3ccccc3n2)cc1OCC [CMS-004, 4-methoxy-2-(3,4-diethoxyphenyl) quinoline] | 0.12 | no | no | no |  |  |  |  | 
7 | O=c1cc(-c2ccc(O)c(O)c2)oc2c1ccc1ccccc12 [CMS-02P, reference compound] | 0.18 |  | no | yes | 80 nM | ≤ 100 nM | 86% | ~40 fold | 
8 | COc1cc(-c2ccc(N3CCCC3)cc2)nc2ccccc12 [CMS-110, 4-methoxy-2-(4-(pyrrolidin-1-yl)phenyl)quinoline] | 0.27 | no | no | no |  |  |  |  | 
9 | CC(C)Oc1cc(-c2ccc(N(C)C)cc2)nc2ccccc12 [CMS-112, 4-isopropoxy-2-(4-dimethylaminophenyl)quinoline] | 0.15 |  | no | no | 50 nM |  |  |  | 
10 | COc1cc(-c2cc(=O)c3cc(C)c(C)cc3o2)ccc1O [CMS-064, 2-(4-hydroxy-3-methoxyphenyl)-6,7-dimethyl-4H-chromen-4-one] | 0.12 |  | no | no | 30 nM | < 40 nM |  |  | 34 nM
11 | CCOc1ccc(-c2oc3c(ccc4ccccc43)c(=O)c2O)cc1OCC [CMS-036, 2-(3,4-diethoxyphenyl)-3-hydroxy-4H-benzo[h]chromen-4-one] | 0.15 |  | no | no | 300 nM |  |  |  | 
12 | COc1cc(-c2ccccc2)nc2ccccc12 [CMS-021, 4-methoxy-2-phenylquinoline] | 0.12 |  | no | no | 750 nM |  |  |  | 
13 | CCOc1ccc(-c2oc3cc(C)c(C)cc3c(=O)c2O)cc1OCC [CMS-025, 2-(3,4-diethoxyphenyl)-3-hydroxy-6,7-dimethyl-4H-chromen-4-one] | 0.84 |  | no | no | 500 nM |  |  |  | 
